Data set [1] can be described thus: Assay C: Hepatocyte clearance. The class given is in vitro ADME, human. To be noted: hepatocyte suspension, 1 μM test compound. How it is done:
Assay C: Hepatocyte Clearance
The metabolic degradation of the test compound is assayed in a hepatocyte suspension. Hepatocytes (cryopreserved) are incubated in. Dulbecco's modified eagle medium (supplemented with 3.5 μg glucagon/500 mL, 2.5 mg insulin/500 mL and 3.75 mg/500 mL hydrocortison) containing 5% or 50% species serum.
Following a 30 min preincubation in an incubator (37° C., 10% CO2) 5 μl of test compound solution (80 μM; from 2 mM in DMSO stock solution diluted 1:25 with medium) are added into 395 μl hepatocyte suspension (cell density in the range 0.25-5 Mio cells/mL depending on the species, typically 1 Mio cells/mL; final concentration of test compound 1 μM, final DMSO concentration 0.05%).
The cells are incubated for six hours (incubator, orbital shaker) and samples (25 μl) are taken at 0, 0.5, 1, 2, 4 and 6 hours. Samples are transferred into acetonitrile and pelleted by centrifugation (5 min). The supernatant is transferred to a new 96-deepwell plate, evaporated under nitrogen and resuspended.
Decline of parent compound is analyzed by HPLC-MS/MS
CLint is calculated as follows CL_[…]=Dose/AUC=(C0/CD)/(AUD+clast/k)×1000/60. CO: initial concentration in the incubation [μM], CD: cell density of vital cells [10e6 cells/mL], AUD: area under the data [μM×h], clast: concentration of last data point [μM], k: slope of the regression line for parent decline [h-1].
The calculated in vitro hepatic intrinsic clearance can be scaled up to the intrinsic in vivo hepatic Clearance and used to predict hepatic in vivo blood clearance (CL) by the use of a liver model (well stirred model). CL_[…]_INVIVO [ml/min/kg]=(CL_[…] [μL/min/10e6 cells]×hepatocellularity [10e6 cells/g liver]×liver factor [g/kg body weight])/1000 CL [ml/min/kg]=CL_[…]_INVIVO [ml/min/kg]×hepatic blood flow [ml/min/kg]/(CL_[…]_INVIVO [ml/min/kg]+hepatic blood flow [ml/min/kg]) Qh [%]=CL [ml/min/kg]/hepatic blood flow [ml/min/kg])
(§1) Hepatocellularity, human: 120×10e6 cells/g liver
(§2) Liver factor, human: 25.7 g/kg bodyweight
(§3) Blood flow, human: 21 ml/(min×kg)

A further data set concerns the target human TRPA1 ion channel (Homo sapiens (Human), UniProt O75762). Put plainly: Assay A: TRPA1 assay (FLIPR calcium, AITC agonism, HEK293 over-expressing human TRPA1). The class given is cell-based. The conditions noted are these: HEK293 over-expressing human TRPA1, AITC 10 μM, FLIPRtetra; read-out: hTRPA1 IC50. The method, then: A human HEK293 cell line over-expressing the human TRPA1 ion channel (Perkin Elmer, Product No. AX-004-PCL) was used as a test system for compound efficacy and potency. Compound activity was determined by measuring the effect of compounds on intracellular calcium concentration induced by AITC (Allylisothiocyanat) agonism in a FLIPRtetra system (Molecular Devices).
The cells were obtained as frozen cells in cryo-vials and stored until use at −150° C. Cells were grown in culture medium (MEM/EBSS medium with 10% FCS and 0.4 mg/ML Geneticin). […] For sub-culturing cells were detached from flasks by Versene. At the day before the assay, cells were detached, washed twice with medium (MEM/EBSS medium with 10% FCS) and 20000 cells in 20 μl/well were seeded to Poly D-Lysin biocoated 384-well plates (black, clear bottom, Cat. 356697) from Corning. Plates were incubated for 24 hours at 37° C./5% CO2 before use in the assay.
The test compounds were dissolved in 100% DMSO at a concentration of 10 mM and in a first step diluted in DMSO to a concentration of 5 mM, followed by serial dilution steps in 100% DMSO. Dilution factor and number of dilution steps may vary according to needs. Typically 8 different concentrations by 1:5 dilutions were prepared, further intermediate dilutions (1:20) of the substances were carried out with HBSS/HEPES buffer (1×HEPES, Cat. 14065 from Gibco, 20 mM HEPES, Cat. 83264 from SIGMA, 0.1% BSA Cat. 11926 from Invitrogen, pH 7,4
At the assay day cells were washed 3× with assay puffer, 20 μL buffer remained in the wells after washing. 10 μL Ca6 kit (Cat. R8191 MolecularDevices) loading buffer in HBSS/HEPES was added to the cells and the plates were incubated with lid for 120 minutes at […]. 10 μL of compound or controls in HBSS/HEPES buffer/5% DMSO from the intermediate dilution plate were carefully added to the wells. […] Finally 10 μL of the agonist AITC 50 μM dissolved in HBSS/HEPES buffer/0.05% DMSO (final concentration 10 μM) was added to the wells followed by an additional read on the FLIPRtetra device for 10 minutes. The area under the signal curve (AUC) after AITC addition was used for IC50/% inhibition calculations
Data Evaluation and Calculation:
Each assay microtiter plate contained wells with vehicle (1% DMSO) controls instead of compound as controls for AITC induced luminescence (100% CTL; high controls) and wells with vehicle controls without AITC as controls for non-specific changes in luminescence (0% CTL; low controls).
The analysis of the data was performed by the calculation of the area under signal curve of the individual wells. Based on this values the % value for the measurement of each substance concentration was calculated (AUC(sample)−AUC(low))*100/(AUC(high)−AUC(low)) using MegaLab software (in house development). The IC50 values were calculated from the % control values using MegaLab software. Calculation: [y=(a−d)/(1+(x/c)^b)+d], a=low value, d=high value; x=cone M; c=IC50 M; b=hill; y=% ctrl

A short description of data set [2]: Assay B: Microsomal clearance. Format: in vitro ADME, human. To be noted: pooled liver microsomes, 1 μM test compound, 37° C. How it is done: Assay B: Microsomal Clearance:
The metabolic degradation of the test compound is assayed at 37° C. with pooled liver microsomes. The final incubation volume of 100 μl per time point contains TRIS buffer pH 7.6 at RT (0.1 M), magnesium chloride (5 mM), microsomal protein (1 mg/ml) and the test compound at a final concentration of 1 μM.
Following a short preincubation period at 37° C., the reactions are initiated by addition of beta-nicotinamide adenine dinucleotide phosphate, reduced form (NADPH, 1 mM) and terminated by transferring an aliquot into solvent after different time points (0, 5, 15, 30, 60 min). Additionally, the NADPH-independent degradation is monitored in incubations without NADPH, terminated at the last time point. The [%] remaining test compound after NADPH independent incubation is reflected by the parameter c(control) (metabolic stability). The quenched incubations are pelleted by centrifugation (10000 g, 5 min).
An aliquot of the supernatant is assayed by LC-MS/MS for the amount of parent compound. The half-life (t½ INVITRO) is determined by the slope of the semilogarithmic plot of the concentration-time profile.
The intrinsic clearance (CL_[…]) is calculated by considering the amount of protein in the incubation: CL_[…] [μl/min/mg protein]=(Ln 2/(half-life [min]*protein content [mg/ml]))*1000 CL_[…]_INVIVO [ml/min/kg]=(CL_[…] [μL/min/mg protein]×MPPGL [mg protein/g liver]×liver factor [g/kg body weight])/1000 Qh [%]=CL [ml/min/kg]/hepatic blood flow [ml/min/kg])
as §1, §2, §3

A short description of data set [3]: Assay D: Metabolism in human hepatocytes in vitro. The class given is in vitro ADME. To be noted: primary human hepatocytes, 10 μM. The method, then:
Assay D: Metabolism in Human Hepatocytes In Vitro
The metabolic pathway of a test compound is investigated using primary human hepatocytes in suspension.
Following a 30 min preincubation in a cell culture incubator (37° C., 10% CO2), test compound solution is spiked into the hepatocyte suspension to obtain a final cell density of 1.0*10^6 to 4.0*10^6 cells/ml (depending on the metabolic turnover rate of the compound observed with primary human hepatocytes), a final test compound concentration of 10 μM, and a final DMSO concentration of 0.05%.
The cells are incubated for six hours in a cell culture incubator on a horizontal shaker, and samples are removed from the incubation after 0, 0.5, 1, 2, 4 or 6 hours, depending on the metabolic turnover rate. Samples are quenched with acetonitrile and pelleted by centrifugation. The supernatant is transferred to a 96-deepwell plate, evaporated under nitrogen and resuspended prior to bioanalysis by liquid chromatography-high resolution mass spectrometry for identification of putative metabolites.

The term IC50 denotes the concentration that inhibits the measured activity by half.

Chain of human TRPA1 ion channel (O75762 whole entry): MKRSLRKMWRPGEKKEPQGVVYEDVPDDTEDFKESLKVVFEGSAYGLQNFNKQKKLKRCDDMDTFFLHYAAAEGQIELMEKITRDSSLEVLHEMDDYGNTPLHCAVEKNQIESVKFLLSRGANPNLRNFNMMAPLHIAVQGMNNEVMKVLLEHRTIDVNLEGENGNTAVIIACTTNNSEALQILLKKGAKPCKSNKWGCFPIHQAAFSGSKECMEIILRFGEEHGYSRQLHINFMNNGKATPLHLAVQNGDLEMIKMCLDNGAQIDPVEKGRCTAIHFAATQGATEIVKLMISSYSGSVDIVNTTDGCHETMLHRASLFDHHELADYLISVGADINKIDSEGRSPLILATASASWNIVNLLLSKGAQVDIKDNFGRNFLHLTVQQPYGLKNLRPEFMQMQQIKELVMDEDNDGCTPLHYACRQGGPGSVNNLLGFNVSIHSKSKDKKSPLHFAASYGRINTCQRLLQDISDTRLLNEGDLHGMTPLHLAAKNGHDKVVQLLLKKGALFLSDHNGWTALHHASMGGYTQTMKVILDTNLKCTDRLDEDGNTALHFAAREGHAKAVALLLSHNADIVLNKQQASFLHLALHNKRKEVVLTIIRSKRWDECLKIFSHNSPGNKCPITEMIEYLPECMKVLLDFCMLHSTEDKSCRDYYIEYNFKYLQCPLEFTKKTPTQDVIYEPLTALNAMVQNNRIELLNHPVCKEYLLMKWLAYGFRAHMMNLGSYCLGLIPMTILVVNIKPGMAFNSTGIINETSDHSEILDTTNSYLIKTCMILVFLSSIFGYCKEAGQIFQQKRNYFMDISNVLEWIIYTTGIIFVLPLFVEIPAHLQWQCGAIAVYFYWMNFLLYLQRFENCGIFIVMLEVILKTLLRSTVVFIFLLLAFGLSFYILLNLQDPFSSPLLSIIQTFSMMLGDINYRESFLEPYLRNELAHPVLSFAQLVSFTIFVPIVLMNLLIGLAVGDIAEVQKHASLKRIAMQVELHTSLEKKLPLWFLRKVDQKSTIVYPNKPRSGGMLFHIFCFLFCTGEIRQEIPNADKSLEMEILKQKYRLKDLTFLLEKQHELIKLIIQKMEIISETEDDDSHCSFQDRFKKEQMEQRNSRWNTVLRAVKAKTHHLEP

For `O=C1NCCc2c1sc1ncn(Cc3nnn(C[C@H](O)c4ccc(Cl)cc4)n3)c(=O)c21` [Example 6], the “human Hepatocytes [% Qh]” value in data set [1] is on record as 7 % Qh. In addition, on human TRPA1 ion channel, the IC50 worked out at 11 nM. The “human LM [% Qh]” value in data set [2] is below 23 % Qh. The “Major metabolite observed: Mechanism” value in data set [3] (Metabolite M1) is on record as “Oxygenation”; in data set [3] (Metabolite M2) it was “Dehydrogenation”; in data set [3] (Metabolite M3) it was “Glucuronidation”.
`Cc1c(C(N)=O)sc2ncn(Cc3nnn(C[C@H](O)c4cc5ccccc5s4)n3)c(=O)c12` [Example 22]: the “human Hepatocytes [% Qh]” value in data set [1] is on record as 44 % Qh. Besides, the IC50 on human TRPA1 ion channel turned out to be 7 nM. In addition, the “human LM [% Qh]” value in data set [2] stood at 35 % Qh.
For `NC(=O)c1sc2ncn(Cc3nnn(C[C@H](O)c4ccc(Cl)cc4)n3)c(=O)c2c1Cl` [Example 23], in that order: 12 % Qh, 6 nM and below 23 % Qh.

These data come from patent US11578080B2, “Thienopyrimidones” (Boehringer Ingelheim International GmbH, priority 2019, dated 2023).
